Assay results as given in patent EP0423247B1, “COUMAMIDINE COMPOUNDS” (ABBOTT LABORATORIES, priority 1988, dated 1990).
Values after ≈ are worked out from the molar mass of the structure shown.

Experiments:
[1] = Solubility (qualitative description); assay type: physicochemical
Description: High resolution, positive ion fast atom bombardment (FAB) mass spectrometry established identical molecular ions or m/z 835.3576 for the two isomers corresponding to a formula of C₃₃H₄₉N₁₃0₁₃ (calc. 835.3577). UV lambdamax=286 nm. The coumamidine gamma 1 isomer has an imidazolidone ring at the 2 and 3 position of the terminal sugar, and the coumamidine gamma 2 isomer has an oxazolidone ring at positions 3 and 4 of the terminal sugar.

[2] = system: Streptococcus agalactiae CMX 508; assay: MIC, agar dilution method (Brain Heart Infusion agar); assay type: cell-based; conditions: CMX508, Streptococcus agalactiae CMX 508, grown aerobically, BHI agar, read-out: Minimum inhibitory concentrations
Method: (§1) Minimum inhibitory concentration (MIC) was determined by the agar dilution method, described hereinbelow, using Brain Heart Infusion agar.
(§2) Twelve petri dishes were prepared, each containing successive aqueous 2-fold dilutions of the test compounds mixed with 10 mL of sterilized Brain Heart Infusion (BHI) agar.
(§3) The MIC was defined as the lowest concentration of test compound yielding no growth, a slight haze, or sparsely isolated colonies on the inoculum spot as compared to the growth control containing no test compound.

[3] = system: Serratia marcescens CMX 740C; assay: as above; assay type: cell-based; conditions: CMX740C, grown aerobically, BHI agar, read-out: Minimum inhibitory concentrations
Method: as §1, §2, §3

[4] = system: Pseudomonas aeruginosa CFS 389; assay: as above; assay type: cell-based; conditions: CFS389, Pseudomonas aeruginosa CFS 389, grown aerobically, BHI agar, read-out: Minimum inhibitory concentrations
Method: as §1, §2, §3

[5] = system: Proteus vulgaris ABBOTT JJ; assay: as above; assay type: cell-based; conditions: grown aerobically, BHI agar, read-out: Minimum inhibitory concentrations
Method: as §1, §2, §3

[6] = system: Enterobacter cloacae CMX 650A; assay: as above; assay type: cell-based; conditions: CMX650A, grown aerobically, BHI agar, read-out: Minimum inhibitory concentrations
Method: as §1, §2, §3

[7] = system: Enterobacter aerogenes ATCC 13048; assay: as above; assay type: cell-based; conditions: Klebsiella aerogenes, ATCC13048, Enterobacter aerogenes ATCC 13048, grown aerobically, BHI agar, read-out: Minimum inhibitory concentrations
Method: as §1, §2, §3

[8] = system: Staphylococcus epidermidis 3519; assay: as above; assay type: cell-based; conditions: Staphylococcus epidermidis 3519, grown aerobically, BHI agar, read-out: Minimum inhibitory concentrations
Method: as §1, §2, §3

[9] = system: Providencia stuartii CMX 640; assay: as above; assay type: cell-based; conditions: CMX640, Providencia stuartii CMX 640, grown aerobically, BHI agar, read-out: Minimum inhibitory concentrations
Method: as §1, §2, §3

[10] = system: Proteus mirabilis CMX 704F; assay: as above; assay type: cell-based; conditions: CMX704F, grown aerobically, BHI agar, read-out: Minimum inhibitory concentrations
Method: as §1, §2, §3

[11] = system: Staphylococcus aureus A5177; assay: as above; assay type: cell-based; conditions: Staphylococcus aureus A5177, grown aerobically, BHI agar, read-out: Minimum inhibitory concentrations
Method: as §1, §2, §3

[12] = system: Streptococcus pyogenes EES 614; assay: as above; assay type: cell-based; conditions: EES614, Streptococcus pyogenes EES 614, grown aerobically, BHI agar, read-out: Minimum inhibitory concentrations
Method: as §1, §2, §3

[13] = system: Staphylococcus aureus ATCC 6538P; assay: as above; assay type: cell-based; conditions: ATCC6538P, grown aerobically, BHI agar, read-out: Minimum inhibitory concentrations
Method: as §1, §2, §3

[14] = system: Pseudomonas aeruginosa K799/WT; assay: as above; assay type: cell-based; conditions: grown aerobically, BHI agar, read-out: Minimum inhibitory concentrations
Method: as §1, §2, §3

[15] = system: Pseudomonas aeruginosa CFS 387C; assay: as above; assay type: cell-based; conditions: CFS387C, grown aerobically, BHI agar, read-out: Minimum inhibitory concentrations
Method: as §1, §2, §3

[16] = system: Serratia marcescens CMX 657E; assay: as above; assay type: cell-based; conditions: CMX657E, grown aerobically, BHI agar, read-out: Minimum inhibitory concentrations
Method: as §1, §2, §3

[17] = system: Klebsiella pneumoniae ATCC 8045; assay: as above; assay type: cell-based; conditions: ATCC8045, Klebsiella pneumoniae ATCC 8045, grown aerobically, BHI agar, read-out: Minimum inhibitory concentrations
Method: as §1, §2, §3

[18] = system: Pseudomonas aeruginosa A5007; assay: as above; assay type: cell-based; conditions: Pseudomonas aeruginosa A5007, grown aerobically, BHI agar, read-out: Minimum inhibitory concentrations
Method: as §1, §2, §3

Staphylococcus aureus 45 = assay: as above; assay type: cell-based; conditions: Staphylococcus aureus 45, grown aerobically, BHI agar, read-out: Minimum inhibitory concentrations
Method: as §1, §2, §3

[19] = system: Streptococcus bovis A 5169; assay: as above; assay type: cell-based; conditions: Streptococcus equinus, A5169, Streptococcus bovis A 5169, grown aerobically, BHI agar, read-out: Minimum inhibitory concentrations
Method: as §1, §2, §3

[20] = system: Staphylococcus aureus CMX 686B; assay: as above; assay type: cell-based; conditions: CMX686B, grown aerobically, BHI agar, read-out: Minimum inhibitory concentrations
Method: as §1, §2, §3

Pseudomonas cepacia 296I = assay: as above; assay type: cell-based; conditions: Burkholderia cepacia, grown aerobically, BHI agar, read-out: Minimum inhibitory concentrations
Method: as §1, §2, §3

[21] = system: Enterococcus faecium ATCC 8043; assay: as above; assay type: cell-based; conditions: ATCC8043, Enterococcus faecium ATCC 8043, grown aerobically, BHI agar, read-out: Minimum inhibitory concentrations
Method: as §1, §2, §3

[22] = system: Pseudomonas aeruginosa ATCC 27853; assay: as above; assay type: cell-based; conditions: ATCC27853, Pseudomonas aeruginosa ATCC 27853, grown aerobically, BHI agar, read-out: Minimum inhibitory concentrations
Method: as §1, §2, §3

Escherichia coli JUHL = assay: as above; assay type: cell-based; conditions: grown aerobically, BHI agar, read-out: Minimum inhibitory concentrations
Method: as §1, §2, §3

[23] = system: Pseudomonas aeruginosa BMH 10; assay: as above; assay type: cell-based; conditions: BMH10, Pseudomonas aeruginosa BMH 10, grown aerobically, BHI agar, read-out: Minimum inhibitory concentrations
Method: as §1, §2, §3

Escherichia coli SS = assay: as above; assay type: cell-based; conditions: grown aerobically, BHI agar, read-out: Minimum inhibitory concentrations
Method: as §1, §2, §3

[24] = system: Actinetobacter SP CMX 669; assay: as above; assay type: cell-based; conditions: Actinetobacter SP CMX 669, grown aerobically, BHI agar, read-out: Minimum inhibitory concentrations
Method: as §1, §2, §3

[25] = system: Streptococcus pyogenes 930 CONST; assay: as above; assay type: cell-based; conditions: grown aerobically, BHI agar, read-out: Minimum inhibitory concentrations
Method: as §1, §2, §3

[26] = system: Neisseria gonorrhoeae 35FAMPI; assay: as above; assay type: cell-based; conditions: grown aerobically, BHI agar, read-out: Minimum inhibitory concentrations
Method: as §1, §2, §3

[27] = system: Campylobacter jejuni ATTC 29428; assay: as above; assay type: cell-based; conditions: ATTC29428, Campylobacter jejuni ATTC 29428, grown aerobically, BHI agar, read-out: Minimum inhibitory concentrations
Method: as §1, §2, §3

[28] = system: Neisseria gonorrhoeae CMX 591; assay: as above; assay type: cell-based; conditions: CMX591, Neisseria gonorrhoeae CMX 591, grown aerobically, BHI agar, read-out: Minimum inhibitory concentrations
Method: as §1, §2, §3

[29] = system: Haemophilus influenzae 503B; assay: as above; assay type: cell-based; conditions: grown aerobically, BHI agar, read-out: Minimum inhibitory concentrations
Method: as §1, §2, §3

| solubility in dimethylsulfoxide [1] | solubility in methanol [1] | solubility in water [1] | MIC [2] | MIC [3] | MIC [4] | MIC [5] | MIC [6] | MIC [7] | MIC [8] | MIC [9] | MIC [10] | MIC [11] | MIC [12] | MIC [13] | MIC [14] | MIC [15] | MIC [16] | MIC [17] | MIC [18] | SMILES | further results |
| --- | --- | --- | --- | --- | --- | --- | --- | --- | --- | --- | --- | --- | --- | --- | --- | --- | --- | --- | --- | --- | --- |
| readily soluble | slightly soluble | readily soluble | 16 µg/mL (≈ 19.1 µM) | 2 µg/mL (≈ 2.39 µM) | 8 µg/mL (≈ 9.57 µM) | 4 µg/mL (≈ 4.79 µM) | 4 µg/mL (≈ 4.79 µM) | 2 µg/mL (≈ 2.39 µM) | 1 µg/mL (≈ 1.2 µM) | 2 µg/mL (≈ 2.39 µM) | 1 µg/mL (≈ 1.2 µM) | 1 µg/mL (≈ 1.2 µM) | 1 µg/mL (≈ 1.2 µM) | 0.5 µg/mL (≈ 0.598 µM) | 16 µg/mL (≈ 19.1 µM) | 16 µg/mL (≈ 19.1 µM) | 2 µg/mL (≈ 2.39 µM) | 0.5 µg/mL (≈ 0.598 µM) | 16 µg/mL (≈ 19.1 µM) | CC1OC(Oc2ccc(C=CC(=O)NCCC(=N)N)cc2)C(NC(=N)N)C(O)C1NC(=O)NC1OCC(OC2OCC3OC(=O)NC3C2NC(N)=O)C(O)C1NC(N)=O (stereo not drawn) [gamma 2, coumamidine gamma 2] | MIC (Staphylococcus aureus 45): 1 µg/mL (≈ 1.2 µM); MIC [19]: 32 µg/mL (≈ 38.3 µM); MIC [20]: 0.5 µg/mL (≈ 0.598 µM); MIC (Pseudomonas cepacia 296I): > 32 µg/mL; MIC [21]: 32 µg/mL (≈ 38.3 µM); MIC [22]: 8 µg/mL (≈ 9.57 µM); MIC (Escherichia coli JUHL): 0.5 µg/mL (≈ 0.598 µM); MIC [23]: 0.5 µg/mL (≈ 0.598 µM); MIC (Escherichia coli SS): 1 µg/mL (≈ 1.2 µM); MIC [24]: 4 µg/mL (≈ 4.79 µM); MIC [25]: 1 µg/mL (≈ 1.2 µM) |
| readily soluble | slightly soluble | readily soluble | 8 µg/mL (≈ 9.57 µM) | 2 µg/mL (≈ 2.39 µM) | 8 µg/mL (≈ 9.57 µM) | 2 µg/mL (≈ 2.39 µM) | 4 µg/mL (≈ 4.79 µM) | 1 µg/mL (≈ 1.2 µM) | 0.5 µg/mL (≈ 0.598 µM) | 0.5 µg/mL (≈ 0.598 µM) | 1 µg/mL (≈ 1.2 µM) | 1 µg/mL (≈ 1.2 µM) | 4 µg/mL (≈ 4.79 µM) | 0.25 µg/mL (≈ 0.299 µM) | 8 µg/mL (≈ 9.57 µM) | 8 µg/mL (≈ 9.57 µM) | 1 µg/mL (≈ 1.2 µM) | 0.25 µg/mL (≈ 0.299 µM) | 8 µg/mL (≈ 9.57 µM) | CC1OC(Oc2ccc(C=CC(=O)NCCC(=N)N)cc2)C(NC(=N)N)C(O)C1NC(=O)NC1OCC(OC2OCC(O)C3NC(=O)N(C(N)=O)C23)C(O)C1NC(N)=O (stereo not drawn) [gamma 1, coumamidine gamma 1] | MIC [26]: 0.5 µg/mL (≈ 0.598 µM); MIC (Staphylococcus aureus 45): 0.5 µg/mL (≈ 0.598 µM); MIC [19]: 16 µg/mL (≈ 19.1 µM); MIC [20]: 0.25 µg/mL (≈ 0.299 µM); MIC [27]: 0.06 µg/mL (≈ 0.0718 µM); MIC (Pseudomonas cepacia 296I): 32 µg/mL (≈ 38.3 µM); MIC [21]: 16 µg/mL (≈ 19.1 µM); MIC [28]: 0.5 µg/mL (≈ 0.598 µM); MIC [29]: 0.03 µg/mL (≈ 0.0359 µM); MIC [22]: 8 µg/mL (≈ 9.57 µM); MIC (Escherichia coli JUHL): 0.25 µg/mL (≈ 0.299 µM); MIC [23]: 0.25 µg/mL (≈ 0.299 µM); MIC (Escherichia coli SS): 0.5 µg/mL (≈ 0.598 µM); MIC [24]: 0.25 µg/mL (≈ 0.299 µM); MIC [25]: 2 µg/mL (≈ 2.39 µM) |
